Experimental data from PMC7821884, “BRAF inhibition protects against hearing loss in mice” (Science Advances, 2020).

How the values were obtained:
P42 FVB mice = assay: Noise-induced hearing loss in adult mice (ABR, DPOAE, Ctbp2 puncta, pERK); type: in vivo, mouse
Description: Noise injury cannot always be predicted, and pretreatment is often not an option.
Compounds were dissolved in a mixture of 10% DMSO, 5% Tween 80 (P1754, Sigma-Aldrich), 40% PEG-E-300 (91462-1KG, Sigma-Aldrich), and 45% 0.9% saline.
ABR in mice was measured for left ears as described previously with minor modifications ([13], [34]). In brief, ABR waveforms were recorded in a sound booth (Industrial Acoustic Company) by using subdermal needles positioned in the skull, below the pinna, and at the base of the tail, and the responses were fed into a low-impedance Medusa digital biological amplifier system (RA4L; TDT; 20-dB gain). At each frequency, the stimulus intensity was reduced from 90 to 0 dB in 10-dB steps to determine the threshold decibel SPL when the electrical response was just above the noise floor. ABR waveforms were averaged in response to 500 tone bursts. The recorded signals were filtered by a band-pass filter from 300 Hz to 3 kHz. Pretreatment ABR recordings of adult FVB mice (aged 6 weeks) were acquired 1 week before all treatments, and posttreatment ABR measurements were recorded 21 days after cisplatin treatment or 14 days after noise exposure. ABR threshold was determined by the presence of any of three or more of the five waveform peaks. […] All thresholds and shifts were determined independently by two experimenters for each mouse. Individual ABR wave 1 amplitudes were measured as the difference between the positive peak and the following negative trough.
Mice were placed in individual cages in a custom-made acrylic chamber. The sound stimulus was produced by System RZ6 (TDT) equipment and amplified using a 75-A power amplifier (Crown). Sound was delivered to the acrylic chamber via a speaker horn (JBL). The SPL was calibrated with a 1/4-inch free-field microphone (PCB). Before experimental noise exposure, four quadrants of the cage inside the chamber were sampled with the 1/4-inch microphone to ensure that the SPL varied by <0.5 dB across the measured positions. Adult mice were then exposed to 2 hours of octave band noise (8 to 16 kHz) at 100 dB.
Organs of Corti were costained with anti-Ctbp2 and anti–myosin VI antibodies. Confocal imaging was performed using a Zeiss 700 scanning confocal microscope with a 63× objective. Visualization and projections were performed using ZEN 2009 or ZEN 2012 software (Zeiss). Ctbp2 puncta were visualized and counted on the reconstructed three-dimensional images by using the ZEN 2009 or ZEN 2012 three-dimensional construct function as previously reported ([54]). […] Images were acquired around 16-kHz cochlear regions, and each image included 12 to 18 IHCs that were quantified as total number of Ctbp2 puncta divided by total number of IHCs per image.

[1] = test system: P3-P4 FVB mouse cochlear explants; settings: FVB, mouse, 24 h
Description: Mouse cochlear explants are widely recognized as an alternative to in vivo cochlear models and pragmatic for focused drug screening ([37]). […] Medium-alone, drug-alone, and cisplatin-alone treatments were used as controls.
P3-P4 FVB mouse cochleae were dissected and maintained in culture on filter inserts in six-well plates with 1 ml of growth medium DMEM (12430-054,Gibco Life Technologies), with 1% FBS (16000-044, Gibco Life Technologies), B-27 supplement (200 μl/500 ml; 17504-44, Gibco Life Technologies), N-2 supplement (100 μl/500 ml; 17502-048, Gibco Life Technologies), and ampicillin (50 μg/ml; A5354-10ML, Sigma-Aldrich) both inside and outside the filter (Millicell, PICM03050, Millipore). […] Cochleae were imaged by confocal microscopy, two 160-μm regions from middle turns were photographed, and the number of intact HCs was counted. Two to five independent cochleae were tested for each experimental condition.

[2] = test system: Tg(brn3c:GFP) zebrafish larvae neuromast HCs; assay: Zebrafish lateral line neuromast hair cell loss after cisplatin; type: in vivo
Source text: Lateral line neuromasts of zebrafish are a well-established model for the study of drug protection from cisplatin or aminoglycoside toxicity because their HCs are considered homologous to mammalian HCs and readily accessible to compounds in vivo ([47]–[49]). As in our previous studies, MI1 (medial neuromast 1) and O1-2 (otic line) neuromasts were examined in Tg(brn3c:GFP) zebrafish larvae 5 days after fertilization ([50], [51]). […] Green fluorescent protein (GFP) (brn3c) and otoferlin staining were used to identify neuromast HCs. In fig.
Zebrafish (D. rerio) experimental larvae of either sex were obtained by pair mating of adult fish maintained at Boys Town National Research Hospital. We used zebrafish line Tg(brn3c:GFP) that expresses a membrane-bound GFP in HCs. Fish were maintained at 28.5°C in E3 media [5 mM NaCl, 0.17 mM KCl, 0.33 mM CaCl2, and 0.33 MgSO4 (pH 7.2)] at a density of 50 embryos/larvae per […] petri dish. Experimental animals were used at 5 days post-fertilization and cryo-anesthetized after treatment and before fixation. Average HC counts in our studies were obtained from the following three neuromasts: MI1 (medial neuromast 1) and O1 and O2 (otic line).

[3] = test system: phosphorylated ERK (pERK); assay: pERK immunostaining of cisplatin-treated cochlear explants; type: cell-based, mouse; settings: 3 μM, 1 hour pretreatment, 10 min 150 μM cisplatin
Source text: Tissue samples were then imaged via confocal microscopy.

With `CC(C)(C)c1nc(-c2cccc(NS(=O)(=O)c3c(F)cccc3F)c2F)c(-c2ccnc(N)n2)s1` [dabrafenib] the “loss of Ctbp2 puncta per IHC at 16-kHz region” value (P42 FVB mice; 100 mg/kg pretreatment) was “partially rescued”, the “effect on noise-reduced 16-kHz ABR wave 1 amplitude” value (P42 FVB mice; 100 mg/kg pretreatment, 80- and 90-dB SPL) was “significantly mitigated” and the “noise-induced ERK phosphorylation in SCs” value (P42 FVB mice; pretreatment, 3 hours after noise) was “reduced ERK phosphorylation”. For the same compound, the “LD50 (median lethal dose)” value [1] was > 60 µM, the “protection from cisplatin-induced neuromast HC loss” value ([2]; 1 hour pretreatment, 6 hours 400 μM cisplatin, dabrafenib 100 nM) was “significant protection” and the “toxic effect of compound alone on neuromast HCs” value ([2]; all concentrations tested) was “no toxic effect”. For the same compound, the “effect on cisplatin-induced ERK phosphorylation in DC and IPhC regions” value [3] was “prevented ERK activation”.
